# In patent US11518758B2, “Heteroarylaminopyrimidine amide autophagy inhibitors and methods of use thereof” (Deciphera Pharmaceuticals, LLC, priority 2019, dated 2022):
# Tested on: phospho-Serine 318 ATG13 (pATG13) in HCT-116 cells
# Experiment: pATG13 levels of mutant KRas HCT-116 cells after treatment with ULK inhibitors in combination with trametinib (ELISA)
# Format: cell-based, human
# Conditions: not given
# Procedure: Example 179. pATG13 Levels of Mutant KRas HCT-116 Cells after Treatment with ULK Inhibitors in Combination with Trametinib
# (§1) HCT-116 human colon cancer cells (10000 cells/well) were added to a 384-well tissue-culture treated plate in 50 μL of pre-warmed DMEM medium supplemented with 10% characterized fetal bovine serum (Invitrogen, Carlsbad, Calif.), 100 units/mL penicillin G, and 100 μg/mL streptomycin and allowed to grow overnight at 37° C., 5% CO2, and 95% humidity. The following day, 10 μL of media containing trametinib or DMSO as a control was added to wells. The final concentration of trametinib in wells was 250 nM. A dose response of a test compound (0.6 μL per well) was added. DMSO (0.6 μL) was added to control wells. The plate was briefly shaken to mix wells and then incubated at 37° C. overnight. The next day, the media was aspirated and cells were washed with Dulbecco's Phosphate Buffered Saline (Gibco). Cells were lysed using MPER lysis buffer (Pierce, Rockford, Ill.) containing Halt Phosphatase and Protease Inhibitors (Pierce, Rockford, Ill.) and Phosphatase inhibitor cocktail 2 (Sigma, St. Louis, Mo.) at 4° C. for 10 minutes with shaking.
# (§2) Cellular levels of phospho-Serine 318 ATG13 (pATG13) were measured via an ELISA method. Total ATG13 Antibody (Cell Signaling Cat #13273) was used to coat the wells. The plate was incubated at 4° C. overnight and washed with ELISA wash buffer (Biolegend Cat #421601). The wells were then blocked with assay diluent (Biolegend Cat #421203) for 1 hour at room temperature. Plate wells were washed with ELISA wash buffer. Cell lysate was added to wells and incubated at room temperature for 2 hours. Plate wells were washed with ELISA wash buffer. Biotinylated pS318-ATG13 antibody (Rockland Immunochemicals Cat #600-401-C49) was diluted in assay diluent and added to each well and incubated at room temperature for 1 hour. Plate wells were washed with ELISA wash buffer. Streptavidin linked to horseradish peroxidase (Thermo Fisher Cat #21140) was diluted in assay diluent and added to each well and incubated at room temperature for 1 hour. Plate wells were washed with ELISA wash buffer. High sensitivity TMB substrate (Biolegend Cat #421101) was added to each well and incubated at room temperature for 20 minutes. The reaction was stopped with 2N Sulfuric Acid. The plate was analyzed at on a plate reader measuring absorbance at 450 nm and 540 nm (background). Signal was calculated by first subtracting the background absorbance at 540 nm from the absorbance at 450 nm for each well. Next, the background corrected absorbance at 450 nm from blank wells was subtracted from test wells. Data was compared to control wells to determine % ATG13 phosphorylation. GraphPad Prism was used to calculate IC50 values.
row,IC50,SMILES
1,100 to 300 nM,O=C1CCCCN1CCCNc1nc(Nc2cnn(C3CCNCC3)c2)ncc1C(F)(F)F [Example 7]

# Target: T1, ULK1 kinase (Homo sapiens, UniProt O75385)
# T1 construct: purchased Eurofins 14-959
# T1 sequence (O75385 with tags, fused parts or gaps): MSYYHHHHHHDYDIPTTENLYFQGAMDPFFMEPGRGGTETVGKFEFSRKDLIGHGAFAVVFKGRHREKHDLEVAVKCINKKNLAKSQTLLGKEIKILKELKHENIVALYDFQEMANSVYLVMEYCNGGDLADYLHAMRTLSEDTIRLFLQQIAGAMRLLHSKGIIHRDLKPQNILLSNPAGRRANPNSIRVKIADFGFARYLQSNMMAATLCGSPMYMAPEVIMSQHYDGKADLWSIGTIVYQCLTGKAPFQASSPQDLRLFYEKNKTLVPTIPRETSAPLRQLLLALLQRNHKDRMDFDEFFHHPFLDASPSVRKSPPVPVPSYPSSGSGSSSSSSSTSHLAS
# Experiment: Biochemical assay for ULK1.2 (coupled pyruvate kinase/lactate dehydrogenase assay)
# Conditions: 19 nM ULK1 (Eurofins), myelin basic protein, 1 mM ATP
# How it was run: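 NADH-coupled PK/LDH read-out at 340 nm, run with 19 nM ULK1, 0.25 mg/mL myelin basic protein and 1 mM ATP. Buffer was 100 mM Tris pH 7.5 with 15 mM MgCl2 and 1% DMSO final. Monitoring was continuous for 6 hours at 30° C; rates from the 2-3 h window were converted to percent inhibition and fitted to a four-parameter curve for IC50.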
row,IC50,SMILES
1,25 to 100 nM,Cc1nn([C@@H]2CCN(C)C2)cc1Nc1ncc(Br)c(NCCCN2CCCCC2=O)n1 [Example 44]
2,1 to 25 nM,Cc1nn([C@@H]2CCN(C)C2)cc1Nc1ncc(C(F)(F)F)c(NCCCN2CCOCCC2=O)n1 [Example 133]
3,25 to 100 nM,CCN1CCC(n2cc(Nc3cc(NCCCN4CCCCC4=O)c(C(F)(F)F)cn3)cn2)CC1 [Example 16]
4,1 to 25 nM,Cc1nn(CCCN2CCCC2)cc1Nc1ncc(C(F)(F)F)c(NCCCN2CCCCCC2=O)n1 [Example 99]
5,100 to 500 nM,Cc1nn(CCCN2CCOCC2)cc1Nc1ncc(C(F)(F)F)c(NCCCN2CCOCCC2=O)n1 [Example 129]
6,25 to 100 nM,Cc1nn([C@@H]2CCNC2)cc1Nc1ncc(Br)c(NCCCN2CCCCC2=O)n1 [Example 60]
7,25 to 100 nM,CCN1CC[C@H](n2cc(Nc3ncc(C(F)(F)F)c(NCCCN4CCCCC4=O)n3)c(C)n2)C1 [Example 66]
8,1 to 25 nM,O=C1CCCCN1CCCNc1nc(Nc2cnn(C3CCNCC3)c2)ncc1C(F)(F)F [Example 7]
9,25 to 100 nM,O=C1CCCCCN1CCCNc1nc(Nc2cnn(CCN3CCOCC3)c2)ncc1C(F)(F)F [Example 96]

# Tested on: phospho-Serine 318 ATG13 (pATG13), ULK kinase substrate, in A549 (KRAS mutant) cells
# Experiment: pATG13 levels of mutant KRas A549 cells after treatment with ULK inhibitors in combination with trametinib (ELISA)
# Format: cell-based, human
# Conditions: with 250 nM trametinib
# How it was run: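 A549 cells grown overnight were treated overnight at 37 °C with a dose response of test compound plus 250 nM trametinib (final) or DMSO. Lysates were assayed by sandwich ELISA, with total ATG13 capture and biotinylated pS318-ATG13 detection read at 450 nm minus 540 nm, giving % phosphorylation against control and IC50.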
row,IC50,SMILES
1,100 to 300 nM,Cc1nn([C@@H]2CCN(C)C2)cc1Nc1ncc(Br)c(NCCCN2CCCCC2=O)n1 [Example 44]
2,10 to 100 nM,Cc1nn([C@@H]2CCN(C)C2)cc1Nc1ncc(C(F)(F)F)c(NCCCN2CCOCCC2=O)n1 [Example 133]
3,100 to 300 nM,CCN1CCC(n2cc(Nc3cc(NCCCN4CCCCC4=O)c(C(F)(F)F)cn3)cn2)CC1 [Example 16]
4,100 to 300 nM,Cc1nn(CCCN2CCCC2)cc1Nc1ncc(C(F)(F)F)c(NCCCN2CCCCCC2=O)n1 [Example 99]
5,> 600 nM,Cc1nn(CCCN2CCOCC2)cc1Nc1ncc(C(F)(F)F)c(NCCCN2CCOCCC2=O)n1 [Example 129]
6,> 600 nM,Cc1nn([C@@H]2CCNC2)cc1Nc1ncc(Br)c(NCCCN2CCCCC2=O)n1 [Example 60]
7,100 to 300 nM,CCN1CC[C@H](n2cc(Nc3ncc(C(F)(F)F)c(NCCCN4CCCCC4=O)n3)c(C)n2)C1 [Example 66]
8,10 to 100 nM,O=C1CCCCN1CCCNc1nc(Nc2cnn(C3CCNCC3)c2)ncc1C(F)(F)F [Example 7]
9,300 to 600 nM,O=C1CCCCCN1CCCNc1nc(Nc2cnn(CCN3CCOCC3)c2)ncc1C(F)(F)F [Example 96]

# Target: T2, ULK2 kinase (Homo sapiens, UniProt Q8IYT8)
# T2 construct: purchased Eurofins 14-772
# T2 sequence (Q8IYT8 with tags, fused parts or gaps): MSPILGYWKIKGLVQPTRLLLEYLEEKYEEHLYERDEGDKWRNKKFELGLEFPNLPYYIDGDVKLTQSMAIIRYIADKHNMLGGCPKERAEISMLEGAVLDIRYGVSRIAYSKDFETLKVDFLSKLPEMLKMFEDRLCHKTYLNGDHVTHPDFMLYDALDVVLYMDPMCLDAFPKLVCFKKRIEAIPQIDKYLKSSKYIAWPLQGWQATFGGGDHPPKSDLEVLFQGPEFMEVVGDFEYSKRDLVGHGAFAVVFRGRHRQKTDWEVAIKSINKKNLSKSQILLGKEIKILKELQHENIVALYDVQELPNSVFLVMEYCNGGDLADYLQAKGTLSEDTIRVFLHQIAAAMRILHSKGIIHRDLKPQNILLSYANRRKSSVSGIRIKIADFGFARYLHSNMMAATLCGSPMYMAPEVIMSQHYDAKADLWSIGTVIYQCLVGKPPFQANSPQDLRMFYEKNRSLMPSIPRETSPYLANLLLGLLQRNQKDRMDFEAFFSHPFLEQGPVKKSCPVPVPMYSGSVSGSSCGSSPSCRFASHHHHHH
# Experiment: Biochemical assay for ULK2 (coupled pyruvate kinase/lactate dehydrogenase assay)
# Conditions: 9.7 nM ULK2 (Eurofins), myelin basic protein, 1 mM ATP; read-out: ULK2.2
# Procedure: Example 176. Biochemical Assay for ULK2
# Activity of ULK2 kinase was determined spectroscopically using a coupled pyruvate kinase/lactate dehydrogenase assay that continuously monitors the ATP hydrolysis-dependent oxidation of NADH (e.g., Schindler et al. Science (2000) 289: 1938-1942). Assays were conducted in 384-well plates (100 uL final volume) using 9.7 nM ULK2 (Eurofins CAT #14-772), 0.25 mg/mL myelin basic protein, 1.5 units pyruvate kinase, 2.1 units lactate dehydrogenase, 1 mM phosphoenol pyruvate, 0.28 mM NADH and 1 mM ATP in assay buffer (100 mM Tris, pH 7.5, 15 mM MgCl2, 0.5 mM DTT, 0.1% octyl-glucoside, 0.002% (w/v) BSA, and 0.002% Triton X-100). Inhibition of ULK2 was measured by adding serial diluted test compound (final assay concentration of 1% DMSO). A decrease in absorption at 340 nm was monitored continuously for 6 hours at 30° C. on a multi-mode microplate reader (BioTek). The reaction rate was calculated using the 2-3 h time frame. The reaction rate at each concentration of compound was converted to percent inhibition using controls (i.e. reaction with no test compound and reaction with a known inhibitor) and IC50 values were calculated by fitting a four-parameter sigmoidal curve to the data using Prism (GraphPad software).
row,IC50,SMILES
1,100 to 500 nM,Cc1nn([C@@H]2CCN(C)C2)cc1Nc1ncc(Br)c(NCCCN2CCCCC2=O)n1 [Example 44]
2,100 to 500 nM,CCN1CCC(n2cc(Nc3cc(NCCCN4CCCCC4=O)c(C(F)(F)F)cn3)cn2)CC1 [Example 16]
3,100 to 500 nM,Cc1nn(CCCN2CCCC2)cc1Nc1ncc(C(F)(F)F)c(NCCCN2CCCCCC2=O)n1 [Example 99]
4,> 500 nM,Cc1nn(CCCN2CCOCC2)cc1Nc1ncc(C(F)(F)F)c(NCCCN2CCOCCC2=O)n1 [Example 129]
5,100 to 500 nM,Cc1nn([C@@H]2CCNC2)cc1Nc1ncc(Br)c(NCCCN2CCCCC2=O)n1 [Example 60]
6,100 to 500 nM,CCN1CC[C@H](n2cc(Nc3ncc(C(F)(F)F)c(NCCCN4CCCCC4=O)n3)c(C)n2)C1 [Example 66]
7,1 to 25 nM,O=C1CCCCN1CCCNc1nc(Nc2cnn(C3CCNCC3)c2)ncc1C(F)(F)F [Example 7]

# Tested on: phospho-Serine 318 ATG13 (pATG13) in MiaPaCa-2 cells
# Experiment: pATG13 levels of mutant KRas MiaPaCa-2 cells after treatment with ULK inhibitors in combination with trametinib (ELISA)
# Format: cell-based, human
# Conditions: not given
# Procedure: Example 178. pATG13 Levels of Mutant KRas MiaPaCa-2 Cells after Treatment with ULK Inhibitors in Combination with Trametinib
# as §1, with “MiaPaCa-2” for “HCT-116”, “pancreatic” for “colon”, “G,” for “G, and”, “streptomycin, and 2.5% Horse Serum” for “streptomycin”
# as §2
row,IC50,SMILES
1,100 to 300 nM,Cc1nn([C@@H]2CCN(C)C2)cc1Nc1ncc(Br)c(NCCCN2CCCCC2=O)n1 [Example 44]
2,10 to 100 nM,Cc1nn([C@@H]2CCN(C)C2)cc1Nc1ncc(C(F)(F)F)c(NCCCN2CCOCCC2=O)n1 [Example 133]
3,10 to 100 nM,CCN1CCC(n2cc(Nc3cc(NCCCN4CCCCC4=O)c(C(F)(F)F)cn3)cn2)CC1 [Example 16]
4,10 to 100 nM,Cc1nn(CCCN2CCCC2)cc1Nc1ncc(C(F)(F)F)c(NCCCN2CCCCCC2=O)n1 [Example 99]
5,> 600 nM,Cc1nn(CCCN2CCOCC2)cc1Nc1ncc(C(F)(F)F)c(NCCCN2CCOCCC2=O)n1 [Example 129]
6,10 to 100 nM,Cc1nn([C@@H]2CCNC2)cc1Nc1ncc(Br)c(NCCCN2CCCCC2=O)n1 [Example 60]
7,100 to 300 nM,CCN1CC[C@H](n2cc(Nc3ncc(C(F)(F)F)c(NCCCN4CCCCC4=O)n3)c(C)n2)C1 [Example 66]
8,100 to 300 nM,O=C1CCCCCN1CCCNc1nc(Nc2cnn(CCN3CCOCC3)c2)ncc1C(F)(F)F [Example 96]
